{
  "source": "patent US10330685B2",
  "about": "“Markers for sepsis treatment” (priority 2014, dated 2019)",
  "key": {"septic shock": {"test_system": "septic shock", "details": "septic shock patients; cited from earlier work"}, "[1]": {"experiment": "Serum metabolites by 1H-NMR before and 24 h and 48 h after L-carnitine treatment", "type": "in vivo, human", "procedure": "(§1) These and other features, aspects, and advantages of the present technology will become better understood with regard to the following drawings, which represent the analysis of patients enrolled in a phase I study of L-carnitine in septic shock (see, e.g., Puskarich et al. J Parenter Enteral Nutr 38(6): 736-743, incorporated herein by reference in its entirety). From this study, serum samples collected from carnitine-treated (n=16) and placebo-treated (n=14) patients were assayed by ^1H-nuclear magnetic resonance (NMR) and the resulting spectra were used to identify and quantify metabolites; a total of 38 metabolites were identified in each sample:\nSerum samples were collected from patients enrolled in a previously published double-blind randomized phase I clinical trial of L-carnitine treatment for sepsis (see, e.g., Puskarich et al., J Parenter Enteral Nutr 38(6): 736-743, incorporated herein by reference in its entirety). From this study, serum samples collected from carnitine-treated (n=16) and placebo-treated (n=15) patients were assayed by ^1H-nuclear magnetic resonance (NMR) and the resulting spectra were used to identify and quantify metabolites; a total of 38 metabolites were identified in each sample. […]\nThe levels of these metabolites were also measured in samples acquired at 24 hours and 48 hours after treatment with L-carnitine. […]"}, "sepsis patients": {"test_system": "sepsis patients", "experiment": "Phase I clinical trial of L-carnitine treatment for sepsis: survival", "type": "in vivo, human", "procedure": "as §1\nSerum samples were collected from patients enrolled in a previously published double-blind randomized phase I clinical trial of L-carnitine treatment for sepsis (see, e.g., Puskarich et al., J Parenter Enteral Nutr 38(6): 736-743, incorporated herein by reference in its entirety). From this study, serum samples collected from carnitine-treated (n=16) and placebo-treated (n=15) patients were assayed by ^1H-nuclear magnetic resonance (NMR) and the resulting spectra were used to identify and quantify metabolites; a total of 38 metabolites were identified in each sample.\nSerum was assayed prior to (T0) and following (T24, T48) treatment with a single 12-g dose of LC or placebo. […]"}},
  "data": [
    {"smiles": "C[N+](C)(C)C[C@H](O)CC(=O)[O-]", "note": "[L-carnitine]", "values": [
      {"measurement": "hemodynamic parameters (right atrial pressure, mean arterial pressure, arterial oxygenation)", "setting": "septic shock", "value": "improvements"},
      {"measurement": "carnitine levels at 24 hours", "setting": "[1]; in vivo", "value": "higher carnitine levels"},
      {"measurement": "citrate levels", "setting": "[1]; serum, LC-treated patients, following a profound decline", "value": "increased"},
      {"measurement": "mortality rate", "setting": "sepsis patients; \"high\" ketone sepsis patients treated with LC compared with \"low\" ketone patients", "value": "higher mortality rate"},
      {"measurement": "survival", "setting": "sepsis patients; patients with \"low\" amounts of ketone prior to L-carnitine treatment vs patients with \"high\" amounts", "value": "significantly better survival"}
    ]}
  ]
}
